Measured values from US20230322815A1, “NOVEL COMPOUNDS AND THERAPEUTIC USES THEREOF” (University of Huddersfield, priority 2020, published 2023).

Tests used:
[1] = tested on: HT29 tumors; test: Chick embryo chorioallantoic membrane (CAM) assay, in ovo efficacy; format: in vivo, human tumor cells on chick embryo CAM; details: for dose giving statistically significant regression of tumor growth (mean tumor weight at E18), comparable to SoC: L2Zn3 26.6, 53.2, 106.4 μM, L2Cu3 23.8, 65.7, 131.46 μM, SoC doxorubicin; for HT29 tumor cell metastasis to the lower CAM: any of the tested doses, data not shown
Description: FIG. 23. Activity of [L2Cu3]^6+ and [L2Zn3]^6+ against primary HT29 tumors. The results presented represent the mean tumour weight ±SEM following treatment at 3 different doses of [L2Cu3]^6+ and [L2Zn3]^6+: L2Zn3 [1]=26.6 μM, L2Zn3 [2]=53.2 μM, L2Zn3 [3]=106.4 μM; L2Cu3 [1]=23.8 μM, L2Cu3[2]=65.7 μM, L2Cu3[3]=131.46 μM. SoC doxorubicin. Statistical analysis by one way ANOVA (*): 0.05≥p value >0.01; (**): 0.01≥p value >0.001; (***): 0.001≥p value; (****): 0.0001≥p value. Number per experimental group n=10-14.
[L2Cu3]^6+ and [L2Zn3]^6+ were evaluated at three different doses for in ovo anti-cancer activity, toxicity and anti-metastatic activity against tumors initiated from three different human cancer cell line models (H460, HT29, HCT116), in the chick embryo chorioallantoic membrane (CAM) assay.
Each compound was provided to the contract research organisation (CRO) Inovotion (La Tronche, France) conducting the in ovo study, as a powder pre-weighed in single vials (2 equivalents of ligand, 3 equivalents of metal; and stored at room temperature). Before use, this was then dissolved in DMSO to 50 mM to generate a stock solution and further freshly diluted in RPM11640 or McCoys aqueous cell culture media for administration.
A standard of care (SoC) drug for the particular tumour type was tested concurrently as a comparative control for in vivo efficacy and toxicity evaluation. A solvent control served as a negative control for both SoC and experimental compounds.
10^6 tumor cells (H460, HT29 or HCT116) were grafted onto the upper chorioallantoic membrane (CAM) of the developing chick embryo on embryonic day 9 (E9). Access to the upper CAM was through a small hole drilled through the eggshell of fertilized White Leghorn eggs (into the air sac) on E9 (15 eggs per experimental group).
100 μl of freshly prepared experimental compound, vehicle control or standard-of-care (SoC) drug at their working concentrations were pipetted onto the tumor graft at E11, E13, E15 and E17. On day E18, the upper CAM (with tumor) was removed, washed by PBS buffer and then directly transferred in PFA (fixation for 48 hrs). After that, tumors were carefully cut away from normal CAM tissue and weighed.
On day E18, a 1 cm^2 portion of the lower CAM was collected (n=8 per group), stored at −20° C. and later processed to extract DNA. Samples were analysed for human genomic DNA (qPCR for Alu sequences) as a quantitative marker of tumor metastasis to the lower CAM.

[2] = tested on: AMPK; test: Cell-free kinase screen; format: biochemical, human; details: 10 μM complex
Description: FIG. 9. Effects of [L2Zn3]^6+ and [L2Cu3]^6+ on the activity of purified human kinases. a,b, Percentage inhibition of the indicated kinases by [L2Zn3]^6+ (a) and [L2Cu3]^6+ (b) respectively at a concentration of 10 μM; full results are presented in the ESI. c,d, Kinases whose activity is stimulated by [L2Zn3]^6+ (c) or [L2Cu3]^6+ (d) complexes. e,f, Kinome map showing kinases inhibited (red) or stimulated (green) by [L2Zn3]^6+ (e) or [L2Cu3]^6+ (f). III ustration reproduced courtesy of Cell Signalling Technology Inc (www.cellsignal.com)
FIG. 16. The effect of [L2Zn3]^6+ and [L2Cu3]^6+ on the activity of recombinant human kinases. The compounds were submitted to the MRC Protein Phosphorylation and Ubiquitination Unit International Centre for Kinase Profiling (University of Dundee) and tested at a concentration of 10 μM against 140 human kinases (Premier Screen).
Given the ability of the Zn^2+ complex to dephosphorylate amino acids serine, tyrosine and threonine (FIG. 6) and the Cu^2+ complex to bind phenyl phosphate (FIG. 3), it was examined whether the complexes affect the activity of kinases. This was assessed in a cell-free screen of 140 kinases using purified recombinant human kinases and substrate peptides incubated in the presence of ^33P ATP and 10 μM complex or solvent control. […]

| Compound | dose giving statistically significant regression of tumor growth (mean tumor weight at E18), comparable to SoC [1] | HT29 tumor cell metastasis to the lower CAM [1] | effect on AMPK activity in the kinase screen [2] |
| --- | --- | --- | --- |
| [Cu+2].[Cu+2].[Cu+2].c1ccc(-c2csc(NCCN(CCNc3nc(-c4ccccn4)cs3)CCNc3nc(-c4ccccn4)cs3)n2)nc1.c1ccc(-c2csc(NCCN(CCNc3nc(-c4ccccn4)cs3)CCNc3nc(-c4ccccn4)cs3)n2)nc1 [[L2Cu3]^6+] | highest tested dose | no reduction | inhibition of AMPK |
| [Zn+2].[Zn+2].[Zn+2].c1ccc(-c2csc(NCCN(CCNc3nc(-c4ccccn4)cs3)CCNc3nc(-c4ccccn4)cs3)n2)nc1.c1ccc(-c2csc(NCCN(CCNc3nc(-c4ccccn4)cs3)CCNc3nc(-c4ccccn4)cs3)n2)nc1 [[L2Zn3]^6+] | highest tested dose | no reduction | inhibition of AMPK |
